From patent publication US11352322B2, “Cyclopropyl-amide compounds as dual LSD1/HDAC inhibitors” (Jubilant Epicore LLC, priority 2016, dated 2022)
Counter-ions that a name gives are not always drawn. Like-named read-outs stand apart in the source and are kept apart here.

Tests used:
[1] = Metabolic stability in liver microsomes, MLM; settings: 1 μM, NADPH
Description: (§1) The microsomal suspension was prepared by adding liver microsomes to 100 mM potassium phosphate buffer (pH7.4) to give a final protein concentration of 0.5 mg/mL. The stock solution of NCE (10 mM in DMSO) was added to the microsomes to provide a final concentration of 1 μM. […] Samples were vortexed and centrifuged at 5,000 rpm for 10 min to remove proteins. Supernatant were analyzed on LC-MS/MS.

[2] = Metabolic stability in liver microsomes, HLM; settings: 1 μM, NADPH
Description: as §1

LSD1 = LSD1 (Homo sapiens (Human), UniProt O60341); experiment: TR-FRET Assay for LSD1
Description: TR-FRET Assay for LSD1 (Perkin Elmer)
Tranylcypromine (TCP), LSD1 inhibitor was procured from Selleckchem. […] Stop Solution containing 300 μM tranylcypromine in 1× LANCE Detection Buffer was added to the wells and incubated for 5 min at RT. Then, Detection mix containing 2 nM Eu-Ab and 50 nM ULight-Streptavidin in 1× LANCE Detection Buffer was prepared and added to the reaction mix. This mixture was incubated for 1 hour at room temperature.

MM1S = experiment: Anticancer activity: Alamar Blue assay, MM1S; type: cell-based; settings: Homo sapiens, MM1.S, read-out: MM1S EC50
Description: Cells were seeded at 5000 cells/per well in 96-well tissue culture plate and incubated at 37° C./5% CO2. After 16-24 hours, fresh media was added to the wells. Compounds were then (1% DMSO conc.) added to the cells at 10 concentrations ranging from 10-0.0005 uM prepared in 3-fold serial dilutions. Cells were incubated for 68-72 h at 37° C./5% CO2. Alamar Blue™ reagent was added and incubated for 1-3 hours at 37° C./5% CO2. Plates were read on fluorescence reader at 540 nm excitation, 590 nm emission wave lengths.

[3] = molecular target: HDAC6 human recombinant enzyme (Homo sapiens (Human), UniProt Q9UBN7); experiment: Histone Deacetylase Assay (BPS Biosciences), HDAC6; type: biochemical
Excerpt: Histone Deacetylase Assay (BPS Biosciences)
Histone deacetylase assay was done as per manufacturer's instructions.

Chain of HDAC6 human recombinant enzyme (Q9UBN7 whole entry): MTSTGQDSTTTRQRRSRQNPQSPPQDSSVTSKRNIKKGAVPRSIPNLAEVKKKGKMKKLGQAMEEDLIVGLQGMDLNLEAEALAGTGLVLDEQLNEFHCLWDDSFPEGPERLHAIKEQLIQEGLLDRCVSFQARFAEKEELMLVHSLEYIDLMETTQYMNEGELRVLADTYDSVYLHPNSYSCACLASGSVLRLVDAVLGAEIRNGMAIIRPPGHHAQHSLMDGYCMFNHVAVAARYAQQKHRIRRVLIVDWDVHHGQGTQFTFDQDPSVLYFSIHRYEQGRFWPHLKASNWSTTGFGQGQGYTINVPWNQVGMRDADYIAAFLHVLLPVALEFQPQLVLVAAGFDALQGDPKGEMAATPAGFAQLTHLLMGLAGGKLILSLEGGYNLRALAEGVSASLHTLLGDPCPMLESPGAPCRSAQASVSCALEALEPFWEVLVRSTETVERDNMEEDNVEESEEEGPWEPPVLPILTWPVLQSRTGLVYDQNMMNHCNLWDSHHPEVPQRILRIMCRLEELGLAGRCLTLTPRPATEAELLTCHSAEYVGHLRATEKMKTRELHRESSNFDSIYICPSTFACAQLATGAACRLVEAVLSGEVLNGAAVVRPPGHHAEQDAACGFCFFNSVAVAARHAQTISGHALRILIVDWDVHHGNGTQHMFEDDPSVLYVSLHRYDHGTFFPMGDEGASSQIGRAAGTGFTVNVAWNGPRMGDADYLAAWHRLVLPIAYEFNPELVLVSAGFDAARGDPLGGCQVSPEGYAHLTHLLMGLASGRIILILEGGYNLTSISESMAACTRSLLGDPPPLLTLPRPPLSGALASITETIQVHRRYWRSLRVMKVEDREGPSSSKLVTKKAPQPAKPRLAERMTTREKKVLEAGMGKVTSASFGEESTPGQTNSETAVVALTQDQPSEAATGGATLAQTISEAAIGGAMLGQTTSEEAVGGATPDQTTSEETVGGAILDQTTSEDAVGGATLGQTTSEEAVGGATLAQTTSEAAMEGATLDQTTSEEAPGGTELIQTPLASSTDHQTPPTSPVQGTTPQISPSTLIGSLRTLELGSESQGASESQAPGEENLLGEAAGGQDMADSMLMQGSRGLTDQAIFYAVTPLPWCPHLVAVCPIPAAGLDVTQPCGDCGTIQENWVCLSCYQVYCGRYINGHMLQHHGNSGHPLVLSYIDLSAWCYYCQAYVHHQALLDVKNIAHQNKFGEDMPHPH

Row | SMILES | Metabolic stability MLM % remaining in 30 min [1] | Metabolic stability HLM % remaining in 30 min [2] | IC50 (LSD1; read-out: LSD1 IC50) [nM] | EC50 (MM1S) [nM] | IC50 [3] [nM] | IC50 (LSD1) [nM] | EC50 (MM1S; MM1S cells) [nM]
1 | O=C(NO)c1ccc(/C=C/C(=O)N2CCC(CNC3CC3c3ccc(-c4cncnc4)cc3)CC2)cc1 (centres unmarked) [Example 117, (E)-N-hydroxy-4-(3-oxo-3-(4-(((2-(4-(pyrimidin-5-yl)phenyl)cyclopropyl)amino)methyl)piperidin-1-yl)prop-1-en-1-yl)benzamide TFA Salt] | 82% | 80% | 46 | 460 | 74 |  | 
2 | O=C(NO)c1ccc(OCCNC2CC2c2ccccc2)cc1 (centres unmarked) [Example 95, N-hydroxy-4-(2-((2-phenylcyclopropyl)amino)ethoxy)benzamide TFA Salt] | 55% | 75% | 33 | 144 | 350 |  | 
3 | O=C(NO)c1ccc(CCCN2CC(CNC3CC3c3ccc(-c4ccc(F)cc4)cc3)C2)cc1 (centres unmarked) [Example 58, 4-(3-(3-(((2-(4′-fluoro-[1,1′-biphenyl]-4-yl)cyclopropyl)amino)methyl)azetidin-1-yl)propyl)-N-hydroxybenzamide TFA Salt] | 91% | 85% | 25 | 15 | 43 |  | 
4 | O=C(NO)c1cc2c(s1)CCN(C(=O)CCCN1CCC(CNC3CC3c3ccc(F)cc3)CC1)C2 (centres unmarked) [Example 106, 5-(4-(4-(((2-(4-fluorophenyl)cyclopropyl)amino)methyl)piperidin-1-yl)butanoyl)-N-hydroxy-4,5,6,7-tetrahydrothieno[3,2-c]pyridine-2-carboxamide TFA Salt] | 92% | 74% | 26 | 14 | 35 |  | 
5 | O=C(NO)c1csc(CCCN2CCC(CNC3CC3c3ccccc3)CC2)n1.O=C(O)C(F)(F)F (centres unmarked) [Example 110, N-hydroxy-2-(3-(4-(((2-phenylcyclopropyl)amino)methyl)piperidin-1-yl)propyl)thiazole-4-carboxamide TFA Salt] | 95% | 88% |  |  | > 10000 | 26 | > 10000
6 | Nc1ccccc1NC(=O)c1ccc(CC(=O)N2CCC(CNC3CC3c3ccc(F)cc3)CC2)cc1 (centres unmarked) [Example 147, N-(2-aminophenyl)-4-(2-(4-(((2-(4-fluorophenyl)cyclopropyl)amino)methyl)piperidin-1-yl)-2-oxoethyl)benzamide TFA Salt] | < 5% | 48% | 32 | 29 | > 10000 |  | 
7 | O=C(NO)c1ccc(C(=O)NCCN2CCC(CNC3CC3c3ccc(F)c(F)c3)CC2)cc1 (centres unmarked) [Example 90, N1-(2-(4-(((2-(3,4-difluorophenyl)cyclopropyl)amino)methyl)piperidin-1-yl)ethyl)-N4-hydroxyterephthalamide TFA Salt] | 93% | 80% | 21 | 339 | 170 |  | 
8 | O=C(NO)c1ccc(CCC(=O)N2CCC(CNC3CC3c3ccccc3)CC2)cc1 (centres unmarked) [Example 82, N-hydroxy-4-(3-oxo-3-(4-(((2-phenylcyclopropyl)amino)methyl)piperidin-1-yl)propyl)benzamide TFA Salt] | 72% | 77% | 94 | 619 | 35 |  | 
9 | Nc1ccccc1NC(=O)c1ccc(CCCN2CC3(CC(NC4CC4c4ccccc4)C3)C2)cc1 (centres unmarked) [Example 127, N-(2-aminophenyl)-4-(3-(6-((2-phenylcyclopropyl)amino)-2-azaspiro[3.3]heptan-2-yl)propyl)benzamide TFA Salt] | 19% | 17% | 764 |  | > 10000 |  | 126
10 | Nc1ccccc1NC(=O)c1ccc(CCCn2cnc(CNC3CC3c3ccccc3)c2)cc1 (centres unmarked) [Example 136, N-(2-aminophenyl)-4-(3-(4-(((2-phenylcyclopropyl)amino)methyl)-1H-imidazol-1-yl)propyl)benzamide TFA Salt] | 3% | 4% | 570 | 174 | > 10000 |  | 
11 | CN1C(=O)C(C)(C)c2cc(C3CC3NCC3CCN(CCCc4ccc(C(=O)NO)cc4)CC3)ccc21 (centres unmarked) [Example 81, N-hydroxy-4-(3-(4(((2-(1,3,3,-trimethyl-2-oxoindoline-5-yl)cyclopropyl)amino)methyl)piperidine-1-yl)propyl)benzamide TFA Salt] | >95/>95% | >95/>95% | 394 |  | 125 |  | 22
12 | Cn1cc(-c2ccc(C3CC3NCC3CN(C(=O)/C=C/c4ccc(C(=O)NO)cc4)C3)cc2)cn1 (centres unmarked) [Example 119, (E)-N-hydroxy-4-(3-(3-(((2-(4-(1-methyl-1H-pyrazol-4-yl)phenyl)cyclopropyl)amino)methyl)azetidin-1-yl)-3-oxoprop-1-en-1-yl)benzamide TFA Salt] | 49% | 72% | 19 | 772 | 49 |  | 
13 | CC(NC1CC1c1ccccc1)[C@H]1CC[C@H](C(=O)NO)CC1 (stereo partly drawn) [Example 34, (1S,4R)—N-hydroxy-4-((1S)-1-((2-phenylcyclopropyl)amino)ethyl)cyclohexanecarboxamide TFA Salt] | 79% | 90% | 31 |  | > 1000 |  | 94
14 | O=C(NO)c1ccc(/C=C/C(=O)N2CC(CNC3CC3c3ccc(F)cc3)C2)cc1 (centres unmarked) [Example 118, (E)-4-(3-(3-(((2-(4-fluorophenyl)cyclopropyl)amino)methyl)azetidin-1-yl)-3-oxoprop-1-en-1-yl)-N-hydroxybenzamide TFA Salt] | 76% | 77% | 37 | 21 | 58 |  | 
15 | Nc1ccccc1NC(=O)c1ccc(OCCNC2CC2c2ccc(F)cc2)cc1 (centres unmarked) [Example 148, N-(2-aminophenyl)-4-(2-((2-(4-fluorophenyl)cyclopropyl)amino)ethoxy) benzamide TFA Salt] | 34% | 46% | 24 |  | > 10000 |  | 40
16 | O=C(NO)c1ccc(OCCN2CCC(CNC3CC3c3ccccc3)CC2)cc1 (centres unmarked) [Example 99, N-hydroxy-4-(2-(4-(((2-phenylcyclopropyl)amino)methyl)piperidin-1-yl)ethoxy)benzamide TFA Salt] | 76% | 63% | 4 | 27 | 51 |  | 
17 | Cc1noc(C)c1-c1ccc(C2CC2NCC2CCN(CCCc3ccc(C(=O)NO)cc3)CC2)cc1.O=C(O)C(F)(F)F (centres unmarked) [Example 64, 4-(3-(4-(((2-(4-(3,5-dimethylisoxazol-4-yl)phenyl)cyclopropyl)amino)methyl)piperidin-1-yl)propyl)-N-hydroxybenzamide TFA Salt] | 77% | 82% |  |  | 58 | 59 | 11
18 | Nc1ccccc1NC(=O)c1ccc(CN2CCC(CNC3CC3c3ccc(-c4cncnc4)cc3)CC2)cc1 (centres unmarked) [Example 144, N-(2-aminophenyl)-4-((4-(((2-(4-(pyrimidin-5-yl)phenyl)cyclopropyl)amino)methyl)piperidin-1-yl)methyl)benzamide TFA Salt] | 52% | 68% | 41 | 152 | > 10000 |  | 
19 | O=C(NO)c1ccc(CCCN2CCC(NC3CC3c3ccccc3)CC2)cc1 (centres unmarked) [Example 44, N-hydroxy-4-(3-(4-((2-phenylcyclopropyl)amino)piperidin-1-yl)propyl)benzamide TFA Salt] | 55% | 71% | 13 | 45 | 65 |  | 
20 | Nc1ccccc1NC(=O)c1ccc(/C=C/C(=O)N2CCC(CNC3CC3c3ccc(F)cc3)CC2)cc1 (centres unmarked) [Example 156] | 49% | 58% | 186 |  | > 10000 |  | 97
21 | Nc1ccccc1NC(=O)c1ccc(/C=C/C(=O)N2CC(CNC3CC3c3ccc(F)cc3)C2)cc1 (centres unmarked) [Example 157, (E)-N-(2-aminophenyl)-4-(3-(3-(((2-(4-fluorophenyl)cyclopropyl)amino)methyl)azetidin-1-yl)-3-oxoprop-1-en-1-yl)benzamide TFA Salt] | 63% | 53% | 58 | 167 | > 10000 |  | 
22 | Cn1cc(-c2ccc(C3CC3NCC3CCN(Cc4ccc(C(=O)Nc5ccccc5N)cc4)CC3)cc2)ccc1=O (centres unmarked) [Example 141, N-(2-aminophenyl)-4-((4-(((2-(4-(1-methyl-6-oxo-1,6-dihydropyridin-3-yl)phenyl)cyclopropyl)amino)methyl)piperidin-1-yl)methyl)benzamide TFA Salt] | 75% | 88% | 30 | 194 | > 10000 |  | 
